According to patent US12495798B2, “Nicotinamide compound and herbicidal composition comprising compound” (KOREA RESEARCH INSTITUTE OF CHEMICAL TECHNOLOGY, priority 2019, dated 2025):

Legend:
black nightshade = assay: Herbicidal activity test against upland field weeds (soil treatment test); assay type: in vivo; set-up: key to Soil treatment herbicidal activity, black nightshade: 0 (no control); 100 (complete control); conditions: 50 g ai/ha, scale 0 (no control) to 100 (complete control); for pest or weed control at 50 g/ha: Solanum nigrum
In short: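 Pre-emergence soil surface spray, day after sowing, into sandy loam pots with fertilizer; compounds at 50 or 75 g a.i./ha in 50% acetone, 0.1% Tween-20. Greenhouse at 30±5 °C, 14/10 h light/dark; visual control rated 0–100 against untreated after 14 days (21 if needed).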

wheat = assay: Phytotoxicity test for upland field crops (foliar treatment test); assay type: in vivo; set-up: key: 0 (no harm); 9 (complete withered)
In short: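 Crops grown in greenhouse pots (30±5 °C, 14/10 h light) were foliar-sprayed with compound at 19–300 g a.i./ha in 33% acetone/0.1% Tween-20. Phytotoxicity scored 0 (no harm) to 9 (complete withering) versus untreated control at 7 and 14 days, 21 if needed.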

[1] = 50 g ai/ha, Wheat (7 days after treatment)
[2] = 50 g ai/ha, Wheat (14 days after treatment)
[3] = 100 g ai/ha, Wheat (7 days after treatment)
[4] = 100 g ai/ha, Wheat (14 days after treatment)

SMILES	Soil treatment herbicidal activity, black nightshade (black nightshade)	Foliar treatment phytotoxicity, Wheat (wheat; [1])	Foliar treatment phytotoxicity, Wheat (wheat; [2])	Foliar treatment phytotoxicity, Wheat (wheat; [3])	Foliar treatment phytotoxicity, Wheat (wheat; [4])	pest or weed control at 50 g/ha (black nightshade) [%]
Cn1nnc(CSCc2nc(C(F)(F)F)ccc2C(=O)Nc2nnnn2C)n1 [Compound No. 2-102, N-(1-methyl-1H-tetrazol-5-yl)-2-((((2-methyl-2H-tetrazol-5-yl)methyl)thio)methyl)-6-(trifluoromethyl)nicotinamide]	100	0	0	0	1	–
Cn1nnnc1COc1nc(C(F)(F)F)ccc1C(=O)Nc1nnnn1C [Compound No. 1-1, N-(1-methyl-1H-tetrazol-5-yl)-2-((1-methyl-1H-tetrazol-5-yl)methoxy)-6-(trifluoromethyl)nicotinamide]	100	1	1	3	2	–
Cn1nnnc1NC(=O)c1ccc(C(F)(F)F)nc1OCc1nnnn1C(F)F [Compound No. 1-26, 2-((1-(difluoromethyl)-1H-tetrazol-5-yl)methoxy)-N-(1-methyl-1H-tetrazol-5-yl)-6-(trifluoromethyl)nicotinamide]	100	0	0	1	2	–
Cn1nnc(CSCc2nc(C(F)(F)F)ccc2C(=O)N(C(=O)c2ccccc2)c2nnnn2C)n1 [Compound No. 2-109, N-benzoyl-N-(1-methyl-1H-tetrazol-5-yl)-2-((((2-methyl-2H-tetrazol-5-yl)methyl)thio)methyl)-6-(trifluoromethyl)nicotinamide]	100	2	2	3	3	–
CON(Cc1nnn(C)n1)c1nc(C(F)(F)F)ccc1C(=O)Nc1nnnn1C [Compound No. 2-30, 2-(methoxy((2-methyl-2H-tetrazol-5-yl)methyl)amino)-N-(1-methyl-1H-tetrazol-5-yl)-6-(trifluoromethyl)nicotinamide]	100	2	1	3	3	–
Cn1nnc(COc2nc(C(F)(F)F)ccc2C(=O)Nc2nnnn2C)n1 [Compound No. 2-1, N-(1-methyl-1H-tetrazol-5-yl)-2-((2-methyl-2H-tetrazol-5-yl)methoxy)-6-(trifluoromethyl)nicotinamide]	–	0	0	0	0	90
Cn1nc(COCc2nc(C(F)(F)F)ccc2C(=O)Nc2nnnn2C)nc1Cl [Compound No. 2-135, 2-(((5-chloro-1-methyl-1H-1,2,4-triazol-3-yl)methoxy)methyl)-N-(1-methyl-1H-tetrazol-5-yl)-6-(trifluoromethyl)nicotinamide]	–	0	0	0	0	60
Cn1nnc(COCc2nc(C(F)(F)F)ccc2C(=O)Nc2nnnn2C)n1 [Compound No. 2-59, N-(1-methyl-1H-tetrazol-5-yl)-2-(((2-methyl-2H-tetrazol-5-yl)methoxy)methyl)-6-(trifluoromethyl)nicotinamide]	100	0	0	0	0	–
Cn1nnc(COCc2nc(C(F)F)ccc2C(=O)Nc2nnnn2C)n1 [Compound No. 2-84, 6-(difluoromethyl)-N-(1-methyl-1H-tetrazol-5-yl)-2-(((2-methyl-2H-tetrazol-5-yl)methoxy)methyl)nicotinamide]	100	0	0	0	0	–
Cn1nnc(CS(=O)(=O)Cc2nc(C(F)(F)F)ccc2C(=O)Nc2nnnn2C)n1 [Compound No. 2-105, N-(1-methyl-1H-tetrazol-5-yl)-2-((((2-methyl-2H-tetrazol-5-yl)methyl)sulfonyl)methyl)-6-(trifluoromethyl)nicotinamide]	–	3	4	4	4	60
Cn1nnnc1COCc1nc(C(F)(F)F)ccc1C(=O)Nc1nnnn1C [Compound No. 1-61, N-(1-methyl-1H-tetrazol-5-yl)-2-(((1-methyl-1H-tetrazol-5-yl)methoxy)methyl)-6-(trifluoromethyl)nicotinamide]	–	4	3	0	6	98
